# Data from ChEMBL document CHEMBL5126521, “Analgesic Opioid Ligand Discovery Based on Nonmorphinan Scaffolds Derived from Natural Sources” (J Med Chem, 2022).
# Bridge positions count the residues as written; N and C are the ends. Square brackets hold non-standard residues; d marks the D form. Peptide text beside a SMILES is read from it. d1Nal = N[C@H](Cc1cccc2ccccc12)C(=O)O; d2Nal = N[C@H](Cc1ccc2ccccc2c1)C(=O)O; Dmt = Cc1cc(O)cc(C)c1C[C@H](N)C(=O)O
# Columns and labels:
# Mu-type opioid receptor [1] = target: Mu-type opioid receptor (Cavia porcellus, UniProt P97266); test: Antagonist activity at guinea pig ileum MOP; type: functional, tissue-based
# Mus musculus [2] = species: Mus musculus; test: Antinociceptive activity in mouse by tail pressure test; type: functional; conditions: Mus musculus; read-out: ED50
# Mus musculus [3] = test: Antinociceptive activity in mouse administered icv; type: functional
# [4] = Half life in mouse liver microsomes; type: ADME, Microsome
# [5] = Toxicity in icv dosed C57BL/6J mouse assessed as antinociceptive activity tolerance; type: organism-based; conditions: in vivo, icv_or_intrathecal
# Mus musculus [6] = test: Antinociceptive activity in icv dosed C57BL/6J mouse assessed as tail withdrawal latency from warm water; type: functional
# Mu-type opioid receptor [7] = target: T1, Mu-type opioid receptor (Homo sapiens, UniProt P35372); test: Displacement of [3H]DAMGO from MOP (unknown origin) stably expressed in CHO cell membrane incubated for 90 mins by scintillation counter analysis; type: cell membranes
# [8] = target: T2, Kappa-type opioid receptor (Homo sapiens, UniProt P41145); test: Displacement of [3H]diprenorphine from KOP (unknown origin) stably expressed in CHO cell membrane incubated for 90 mins by scintillation counter analysis; type: cell membranes
# Mus musculus [9] = test: Antinociceptive activity in Swiss albino mouse assessed tail flick response in warm water administered icv; type: functional
# [10] = target: T3, Kappa-type opioid receptor (Rattus norvegicus, UniProt P34975); test: Displacement of [3H]-norBNI from Wistar rat brain membrane KOP; type: cell membranes
# Mus musculus [11] = test: Antinociceptive activity in po dosed C57BL/6J mouse assessed as tail withdrawal latency from warm water; type: functional
# Mu-type opioid receptor [12] = target: T1, Mu-type opioid receptor; test: Binding affinity to MOP (unknown origin)
# [13] = target: T4, Delta-type opioid receptor (Homo sapiens, UniProt P41143); test: Binding affinity to DOP (unknown origin)
# Mus musculus [14] = test: Antinociceptive activity in Kunming mouse assessed as heat paw withdrawal measured after 10 secs administered icv; type: functional; conditions: time 10 sec, 10 s
# [15] = Stability in mouse serum assessed as half life; type: ADME, cell-free
# [16] = Stability in rat brain homogenate assessed as half life; type: ADME, tissue-based
# [17] = target: T4, Delta-type opioid receptor; test: Displacement of [3H]DPDPE from DOP (unknown origin) stably expressed in CHO cell membrane incubated for 90 mins by scintillation counter analysis; type: cell membranes
# [18] = Degradation half life in rat brain homogenate; type: ADME, tissue-based
# [19] = Stability in rat brain homogenate assessed as compound remaining measured after 90 mins relative to control; type: ADME, tissue-based; conditions: read-out: Stability
# [20] = target: T4, Delta-type opioid receptor; test: Inhibition of DOP (unknown origin)
# [21] = target: T2, Kappa-type opioid receptor; test: Inhibition of KOP (unknown origin)
# [22] = target: Delta-type opioid receptor (Mus musculus, UniProt P32300); test: Displacement of [3H]DPDPE from mouse DOP stably expressed in CHO cell membrane; type: cell membranes
# [23] = target: T2, Kappa-type opioid receptor; test: Binding affinity to human KOP stably expressed in CHO cell membrane assessed as [35S]GTPgammaS binding; type: cell membranes; conditions: filed as antagonist
# [24] = target: T3, Kappa-type opioid receptor; test: Inhibition of Wistar rat brain membrane KOP; type: cell membranes
# Mus musculus [25] = test: Antinociceptive activity in ip dosed mouse assessed as tail flick latency; type: functional
# T3 sequence (P34975 whole entry): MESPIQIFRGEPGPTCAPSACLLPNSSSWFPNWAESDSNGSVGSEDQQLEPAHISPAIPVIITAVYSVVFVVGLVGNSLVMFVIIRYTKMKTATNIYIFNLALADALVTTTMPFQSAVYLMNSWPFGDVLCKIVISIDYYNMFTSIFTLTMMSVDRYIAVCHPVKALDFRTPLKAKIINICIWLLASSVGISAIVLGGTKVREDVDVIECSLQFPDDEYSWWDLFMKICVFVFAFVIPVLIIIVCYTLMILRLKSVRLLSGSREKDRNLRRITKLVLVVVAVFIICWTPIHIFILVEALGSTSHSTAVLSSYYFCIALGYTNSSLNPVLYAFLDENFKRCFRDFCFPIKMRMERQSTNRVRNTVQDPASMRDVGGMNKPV
# T2 sequence (P41145 whole entry): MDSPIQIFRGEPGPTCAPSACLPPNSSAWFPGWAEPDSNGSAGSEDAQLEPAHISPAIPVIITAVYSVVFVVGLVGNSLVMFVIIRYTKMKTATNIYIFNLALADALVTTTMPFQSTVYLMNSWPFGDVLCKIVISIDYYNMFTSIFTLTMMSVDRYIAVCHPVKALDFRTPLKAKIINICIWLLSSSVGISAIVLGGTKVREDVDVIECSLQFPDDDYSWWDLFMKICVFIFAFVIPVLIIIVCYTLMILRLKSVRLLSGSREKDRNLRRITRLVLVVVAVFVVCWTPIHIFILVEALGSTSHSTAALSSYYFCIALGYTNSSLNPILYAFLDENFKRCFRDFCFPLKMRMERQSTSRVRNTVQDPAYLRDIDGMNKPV
# T4 sequence (P41143 whole entry): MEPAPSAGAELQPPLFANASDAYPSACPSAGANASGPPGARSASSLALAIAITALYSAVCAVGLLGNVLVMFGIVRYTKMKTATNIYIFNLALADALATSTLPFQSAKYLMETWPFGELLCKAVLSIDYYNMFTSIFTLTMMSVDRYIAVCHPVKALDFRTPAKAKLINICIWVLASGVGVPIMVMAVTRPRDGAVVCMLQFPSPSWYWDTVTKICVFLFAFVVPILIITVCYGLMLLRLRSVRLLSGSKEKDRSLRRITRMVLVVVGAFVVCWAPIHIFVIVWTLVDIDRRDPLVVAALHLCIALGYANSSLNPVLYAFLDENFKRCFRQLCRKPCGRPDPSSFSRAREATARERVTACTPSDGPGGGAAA
# T1 sequence (P35372 whole entry): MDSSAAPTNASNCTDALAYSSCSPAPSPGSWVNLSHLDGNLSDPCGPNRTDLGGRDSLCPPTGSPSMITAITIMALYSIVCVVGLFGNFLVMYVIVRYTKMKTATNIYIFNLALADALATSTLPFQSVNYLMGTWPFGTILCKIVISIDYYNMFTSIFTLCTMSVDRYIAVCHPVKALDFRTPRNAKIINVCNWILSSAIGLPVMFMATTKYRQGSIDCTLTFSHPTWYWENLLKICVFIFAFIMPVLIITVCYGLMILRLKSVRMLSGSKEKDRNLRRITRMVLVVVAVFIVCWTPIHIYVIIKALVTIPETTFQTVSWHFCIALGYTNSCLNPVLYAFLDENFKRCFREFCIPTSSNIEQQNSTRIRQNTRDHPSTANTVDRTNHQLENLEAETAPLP
# Sequence of Delta-type opioid receptor (Mus musculus, UniProt P32300) (P32300 whole entry): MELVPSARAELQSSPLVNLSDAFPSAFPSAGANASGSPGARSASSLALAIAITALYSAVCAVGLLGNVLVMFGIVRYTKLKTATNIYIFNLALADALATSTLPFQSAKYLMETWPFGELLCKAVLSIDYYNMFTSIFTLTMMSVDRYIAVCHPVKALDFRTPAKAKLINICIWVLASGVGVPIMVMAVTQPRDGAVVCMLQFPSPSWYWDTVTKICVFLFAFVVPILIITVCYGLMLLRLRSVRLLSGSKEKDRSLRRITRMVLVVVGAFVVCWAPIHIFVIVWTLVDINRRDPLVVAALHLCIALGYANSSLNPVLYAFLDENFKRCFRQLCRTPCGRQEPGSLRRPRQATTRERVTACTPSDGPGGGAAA
# Sequence of Mu-type opioid receptor (Cavia porcellus, UniProt P97266) (P97266 whole entry): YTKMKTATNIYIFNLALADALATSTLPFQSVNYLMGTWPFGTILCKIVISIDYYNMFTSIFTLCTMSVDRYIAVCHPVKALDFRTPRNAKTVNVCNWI
smiles,measurement,setting,value
N=C(N)NCCC[C@@H](NC(=O)[C@@H](N)Cc1ccc(O)cc1)C(=O)N[C@@H](Cc1ccccc1)C(=O)NCC(=O)N[C@@H](Cc1ccc(O)cc1)C(=O)N1CCC[C@H]1C(=O)N[C@@H](CO)C(N)=O,IC50,Mu-type opioid receptor [1],90 nM
same,ED50,Mus musculus [2],3.5 mg/kg
same,ED50,Mus musculus [3],23 pmol
O=C1N[C@@H](Cc2ccccc2)C(=O)N2CCC[C@@H]2C(=O)N[C@H](Cc2ccccc2)C(=O)N[C@H]1Cc1c[nH]c2ccccc12,half-life,[4],≤ 30 min
same,ED50,[5],125 nmol
same,ED50,Mus musculus [6],20.4 nmol
O=C1N[C@H](Cc2c[nH]c3ccccc23)C(=O)N[C@H](Cc2ccccc2)C(=O)N2CCC[C@@H]2C(=O)N[C@H]1Cc1ccccc1,half-life,[4],≤ 30 min
same,Ki,Mu-type opioid receptor [7],> 100000 nM
same,Ki,[8],> 100000 nM
same,ED50,Mus musculus [6],2.39 nmol
Cc1cc(O)cc(C)c1C[C@H](N)C(=O)N[C@@H]1CCCCNC(=O)C[C@@H](C(N)=O)NC(=O)[C@@H](Cc2cccc3ccccc23)NC(=O)[C@H](Cc2ccccc2)NC1=O (H-[Dmt][dK]F[d1Nal]D-NH2; lactam 2-5),ED50,Mus musculus [9],0.06 µg
same,Ki,[10],1.78 nM
O=C1N[C@H](Cc2ccccc2)C(=O)N2CCC[C@@H]2C(=O)N[C@H](Cc2ccccc2)C(=O)N[C@H]1Cc1c[nH]c2ccccc12,half-life,[4],≤ 30 min
same,ED50,[5],5.19 nmol
same,ED50,Mus musculus [6],1 nmol
same,ED50,Mus musculus [11],4.12 mg/kg
COC(=O)[C@H](Cc1ccccc1)NC(=O)[C@H](Cc1ccccc1)NC(=O)[C@@H]1CCCN1C(=O)[C@@H](N)Cc1ccc(O)cc1,Ki,Mu-type opioid receptor [12],9.07 nM
same,Ki,[13],> 10000 nM
same,ED50,Mus musculus [14],3 nmol
same,half-life,[15],30.1 min
same,half-life,[16],47.6 min
C[C@@H]1NC(=O)[C@H]2CCCN2C(=O)[C@H](Cc2ccccc2)NC(=O)[C@H](Cc2c[nH]c3ccccc23)NC1=O,Ki,Mu-type opioid receptor [7],533 nM
same,Ki,[17],> 10000 nM
same,Ki,[8],663 nM
NC(=O)[C@H](Cc1ccccc1)NC(=O)[C@H](Cc1ccccc1)NC(=O)[C@@H]1CCCN1C(=O)[C@@H](N)Cc1ccc(O)cc1 [ENDOMORPHIN 2],ED50,Mus musculus [9],6.88 nmol
same,half-life,[15],8.2 min
same,half-life,[18],0.75 min
same,remaining at […],[19],0%
same,half-life,[16],15.9 min
CC[C@H]1CN2CCc3c([nH]c4cccc(OC)c34)[C@@H]2C[C@@H]1/C(=C\OC)C(=O)OC,Ki,[13],> 10000 nM
same,IC50,[20],> 10000 nM
same,IC50,[21],10000 nM
O=C1N[C@H](Cc2c[nH]c3ccccc23)C(=O)N[C@@H](Cc2ccccc2)C(=O)N2CCC[C@@H]2C(=O)N[C@H]1Cc1ccccc1,Ki,[22],4190 nM
same,Kb,[23],20.2 nM
same,ED50,Mus musculus [11],60 mg/kg
CCOC(=O)[C@H](Cc1ccccc1)NC(=O)[C@H](Cc1ccccc1)NC(=O)[C@@H]1CCCN1C(=O)[C@@H](N)Cc1ccc(O)cc1,Ki,Mu-type opioid receptor [12],15 nM
same,Ki,[13],2940 nM
same,ED50,Mus musculus [14],8.4 nmol
same,half-life,[15],29.9 min
same,half-life,[16],58.6 min
NC(=O)[C@@H]1CC(=O)NCCCC[C@@H](NC(=O)[C@@H](N)Cc2ccc(O)cc2)C(=O)N[C@@H](Cc2ccccc2)C(=O)N[C@@H](Cc2ccccc2)C(=O)N1 (H-Y[dK]FFD-NH2; lactam 2-5),ED50,Mus musculus [9],0.06 nmol
same,IC50,[24],2.36 nM
Cc1cc(O)cc(C)c1C[C@H](N)C(=O)N[C@@H]1CCCCNC(=O)C[C@@H](C(N)=O)NC(=O)[C@@H](Cc2ccc3ccccc3c2)NC(=O)[C@H](Cc2ccccc2)NC1=O (H-[Dmt][dK]F[d2Nal]D-NH2; lactam 2-5),ED50,Mus musculus [9],0.08 µg
same,Ki,[10],1.02 nM
COC(=O)[C@@H]1C[C@H](O[C@@H]2CCCCO2)C(=O)[C@H]2[C@@]1(C)CC[C@H]1C(=O)O[C@H](c3ccoc3)C[C@]21C,ED50,Mus musculus [25],1.4 mg/kg
CC(C)(C)OC(=O)[C@H](Cc1ccccc1)NC(=O)[C@H](Cc1ccccc1)NC(=O)[C@@H]1CCCN1C(=O)[C@@H](N)Cc1ccc(O)cc1,Ki,Mu-type opioid receptor [12],50.3 nM
same,Ki,[13],247 nM
same,ED50,Mus musculus [14],3.2 nmol
same,half-life,[15],46 min
same,half-life,[16],72.2 min
